The results in this text go back to patent US10689377B2 (Mirati Therapeutics, Inc., priority 2017, dated 2020).

pIC50: −log10 of the molar value.

In this experiment the target is KRas G12C (Homo sapiens, UniProt P01116, G12C). Description: Cellular inhibition of KRas G12C measured by Phospho-ERK in NCI-H358 cells. Type of experiment: cell-based. The conditions noted are these: pERK(Thr202/Tyr204) normalized with GAPDH, NCI-H358 cells, 3 hours; read-out: IC50. The essentials: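 Readout is pERK(Thr202/Tyr204) immunofluorescence normalized to GAPDH, expressed as percent of DMSO control and fitted with a 4-parameter curve for IC50. Attached NCI-H358 cells received compound for 3 hours in 0.5% DMSO, followed by fixation and methanol permeabilization.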
Chain of KRas G12C (P01116 1-188 isoform P01116-2 G12C): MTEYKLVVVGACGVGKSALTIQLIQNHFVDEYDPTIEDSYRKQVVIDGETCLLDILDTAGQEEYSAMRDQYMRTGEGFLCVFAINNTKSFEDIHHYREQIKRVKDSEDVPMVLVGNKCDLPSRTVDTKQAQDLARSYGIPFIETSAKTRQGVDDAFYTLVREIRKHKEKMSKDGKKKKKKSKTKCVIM
`Cc1cccc(N2CCc3c(nc(OC[C@@H]4CCCN4C)nc3N3CCN(C(=O)/C=C/CN(C)C)[C@@H](CC#N)C3)C2)c1C` [Example 404, 2-((S)-1-((E)-4-(dimethylamino)but-2-enoyl)-4-(7-(2,3-dimethylphenyl)-2-(((S)-1-methylpyrrolidin-2-yl)methoxy)-5,6,7,8-tetrahydropyrido[3,4-d]pyrimidin-4-yl)piperazin-2-yl)acetonitrile]: the negative logarithm of the IC50 (pIC50) (commonly −log10 of the IC50, conventionally taken in molar units) was 6.00 to 10.00.
In the case of `C=CC(=O)N1CCN(c2nc(OC[C@@H]3CCCN3C(C)C)nc3c2CCN(c2cc(O)cc4ccccc24)C3)CC1` [Example 145, 1-[4-[7-(3-hydroxy-1-naphthyl)-2-[[(2S)-1-isopropylpyrrolidin-2-yl]methoxy]-6,8-dihydro-5H-pyrido[3,4-d]pyrimidin-4-yl]piperazin-1-yl]prop-2-en-1-one], the negative-log IC50 (pIC50) is 6.00 to 10.00.
In the case of `C=CC(=O)N1CCN(c2nc(OC[C@H]3CCCCN3C)nc3c2CCN(c2cccc4ccccc24)C3)C[C@@H]1CC#N` [Example 432, 2-((S)-1-acryloyl-4-(2-(((R)-1-methylpiperidin-2-yl)methoxy)-7-(naphthalen-1-yl)-5,6,7,8-tetrahydropyrido[3,4-d]pyrimidin-4-yl)piperazin-2-yl)acetonitrile], the pIC50 was 6.00 to 10.00.
With `C#CC[C@H]1CN(c2nc(OC[C@@H]3CCCN3C)nc3c2CCN(c2cccc4ccccc24)C3)CCN1C(=O)C=C` [Example 358, 1-[(2S)-4-[2-[[(2S)-1-methylpyrrolidin-2-yl]methoxy]-7-(1-naphthyl)-6,8-dihydro-5H-pyrido[3,4-d]pyrimidin-4-yl]-2-prop-2-ynyl-piperazin-1-yl]prop-2-en-1-one], the pIC50 was 6.00 to 10.00.
`C=CC(=O)N1CCN(c2nc(OCCN(C)CCOC)nc3c2CCN(c2cc(O)cc4ccccc24)C3)CC1` [Example 107, 1-(4-(7-(3-hydroxynaphthalen-1-yl)-2-(2-((2-methoxyethyl)(methyl)amino)ethoxy)-5,6,7,8-tetrahydropyrido[3,4-d]pyrimidin-4-yl)piperazin-1-yl)prop-2-en-1-one]: the pIC50 was < 6.00.
To `C=CC(=O)N1CCN(c2nc(OCCN3CCCC3)nc3c2CCN(c2cc(O)cc4ccccc24)C3)CC1` [Example 85, 1-(4-(7-(3-hydroxynaphthalen-1-yl)-2-(2-(pyrrolidin-1-yl)ethoxy)-5,6,7,8-tetrahydropyrido[3,4-d]pyrimidin-4-yl)piperazin-1-yl)prop-2-en-1-one] belongs < 6.00.
Consider `C=CC(=O)N1CCN(c2nc(OC[C@H]3CCCN3CCO)nc3c2CCN(c2cccc4ccccc24)C3)CC1CC#N` (stereo partly drawn) [Example 304, 2-[4-[2-[[(2R)-1-(2-hydroxyethyl)pyrrolidin-2-yl]methoxy]-7-(1-naphthyl)-6,8-dihydro-5H-pyrido[3,4-d]pyrimidin-4-yl]-1-prop-2-enoyl-piperazin-2-yl]acetonitrile], for which the pIC50 was 6.00 to 10.00.
Consider `C=CC(=O)N1CCN(c2nc(OCCN(CC)CC)nc3c2CCN(c2cc(O)cc4ccccc24)C3)CC1` [Example 102], for which the pIC50 is 6.00 to 10.00.
Turning to `C=CC(=O)N1CCN(c2nc(OCCN(C)C)nc3c2CCN(c2cc(O)cc4ccccc24)C3)CC1C(=O)N(C)C` (stereo not shown) [Example 51, 1-acryloyl-4-(2-(2-(dimethylamino)ethoxy)-7-(3-hydroxynaphthalen-1-yl)-5,6,7,8-tetrahydropyrido[3,4-d]pyrimidin-4-yl)-N,N-dimethylpiperazine-2-carboxamide], the negative logarithm of the IC50 (pIC50) is < 6.00.
Regarding `C=CC(=O)N1CCN(c2nc(OCCN(C)C)nc3c2CCN(c2cc(O)cc4ccccc24)C3)[C@@H](C)C1` [Example 116, (S)-1-(4-(2-(2-(dimethylamino)ethoxy)-7-(3-hydroxynaphthalen-1-yl)-5,6,7,8-tetrahydropyrido[3,4-d]pyrimidin-4-yl)-3-methylpiperazin-1-yl)prop-2-en-1-one], the pIC50 is 6.00 to 10.00.
With `C=CC(=O)N1CCN(c2nc(OC[C@@H]3CCCN3C)nc3c2CCN(c2cccc4c(F)cccc24)C3)CC1CC#N` (stereo partly drawn) [Example 287, 2-[4-[7-(5-fluoro-1-naphthyl)-2-[[(2S)-1-methylpyrrolidin-2-yl]methoxy]-6,8-dihydro-5H-pyrido[3,4-d]pyrimidin-4-yl]-1-prop-2-enoyl-piperazin-2-yl]acetonitrile], the pIC50 was 6.00 to 10.00.
For the molecule `C=CC(=O)N1CCN(c2nc(OC[C@@H]3CCCN3C)nc3c2CCN(c2ccccc2C#N)C3)C[C@@H]1CC#N` [Example 325, 2-[4-[(3S)-3-(cyanomethyl)-4-prop-2-enoyl-piperazin-1-yl]-2-[[(2S)-1-methylpyrrolidin-2-yl]methoxy]-6,8-dihydro-5H-pyrido[3,4-d]pyrimidin-7-yl]benzonitrile], the negative-log IC50 (pIC50) is < 6.00.
For `C=CC(=O)N1CCN(c2nc(OC[C@H]3CN(C)CCO3)nc3c2CCN(c2cccc4cccc(Cl)c24)C3)C[C@@H]1CC#N` [Example 363, 2-[(2S)-4-[7-(8-chloro-1-naphthyl)-2-[[(2R)-4-methylmorpholin-2-yl]methoxy]-6,8-dihydro-5H-pyrido[3,4-d]pyrimidin-4-yl]-1-prop-2-enoyl-piperazin-2-yl]acetonitrile], the pIC50 is 6.00 to 10.00.
Regarding `C=CC(=O)N1CCN(c2nc(OCCCN(C)C)nc3c2CCN(c2cc(O)cc4ccccc24)C3)CC1` [Example 10, 1-(4-(2-(3-(dimethylamino)propoxy)-7-(3-hydroxynaphthalen-1-yl)-5,6,7,8-tetrahydropyrido[3,4-d]pyrimidin-4-yl)piperazin-1-yl)prop-2-en-1-one], the negative-log IC50 (pIC50) is < 6.00.
As to `C=CC(=O)N1CCN(c2nc(OC3CCN(C4CC4)CC3)nc3c2CCN(c2cc(O)cc4ccccc24)C3)CC1` [Example 100, 1-(4-(2-((1-cyclopropylpiperidin-4-yl)oxy)-7-(3-hydroxynaphthalen-1-yl)-5,6,7,8-tetrahydropyrido[3,4-d]pyrimidin-4-yl)piperazin-1-yl)prop-2-en-1-one], the negative logarithm of the IC50 (pIC50) is < 6.00.
As to `C=CC(=O)N1CCN(c2nc(OCCCCN(C)C)nc3c2CCN(c2cc(O)cc4ccccc24)C3)CC1` [Example 40, 1-(4-(2-(4-(dimethylamino)butoxy)-7-(3-hydroxynaphthalen-1-yl)-5,6,7,8-tetrahydropyrido[3,4-d]pyrimidin-4-yl)piperazin-1-yl)prop-2-en-1-one], the pIC50 was 6.00 to 10.00.
On to `C=CC(=O)N1CCN(c2nc(OC[C@@H]3C[C@@H](O)CN3C)nc3c2CCN(c2ccccc2C(F)(F)F)C3)CC1CC#N` (stereo partly drawn) [Example 312, 2-[4-[2-[[(2S,4R)-4-hydroxy-1-methyl-pyrrolidin-2-yl]methoxy]-7-[2-(trifluoromethyl)phenyl]-6,8-dihydro-5H-pyrido[3,4-d]pyrimidin-4-yl]-1-prop-2-enoyl-piperazin-2-yl]acetonitrile], for which the pIC50 is 6.00 to 10.00.
On to `C=C(CO)C(=O)N1CCN(c2nc(OC[C@@H]3CCCN3C)nc3c2CCN(c2cccc(C)c2C)C3)C[C@@H]1CC#N` [Example 488, 2-((S)-4-(7-(2,3-dimethylphenyl)-2-(((S)-1-methylpyrrolidin-2-yl)methoxy)-5,6,7,8-tetrahydropyrido[3,4-d]pyrimidin-4-yl)-1-(2-(hydroxymethyl)acryloyl)piperazin-2-yl)acetonitrile], for which the pIC50 is < 6.00.
As to `C=CC(=O)N1CCN(c2nc(OCC3CN(C)CCO3)nc3c2CCN(c2cc(O)cc4ccccc24)C3)CC1` (stereo not shown) [Example 193, 1-(4-(7-(3-hydroxynaphthalen-1-yl)-2-((4-methylmorpholin-2-yl)methoxy)-5,6,7,8-tetrahydropyrido[3,4-d]pyrimidin-4-yl)piperazin-1-yl)prop-2-en-1-one], the negative logarithm of the IC50 (pIC50) is 6.00 to 10.00.
In the case of `C=CC(=O)N1CCN(c2nc(OC[C@H]3CCCN3C)nc3c2CCN(c2ccc(F)c4ccccc24)C3)C[C@@H]1CC#N` [Example 318, 2-[(2S)-4-[7-(4-fluoro-1-naphthyl)-2-[[(2R)-1-methylpyrrolidin-2-yl]methoxy]-6,8-dihydro-5H-pyrido[3,4-d]pyrimidin-4-yl]-1-prop-2-enoyl-piperazin-2-yl]acetonitrile], the negative logarithm of the IC50 (pIC50) was 6.00 to 10.00.
Then `C=CC(=O)N1CCN(c2nc(OC[C@@H]3CCCN3C)nc3c2CCN(c2ccncc2C(F)(F)F)C3)CC1CC#N` (stereo partly drawn) [Example 375, 2-(1-acryloyl-4-(2-(((S)-1-methylpyrrolidin-2-yl)methoxy)-7-(3-(trifluoromethyl)pyridin-4-yl)-5,6,7,8-tetrahydropyrido[3,4-d]pyrimidin-4-yl)piperazin-2-yl)acetonitrile], with < 6.00; and `C=CC(=O)N1CCN(c2nc(OCCCN3C[C@@H]4C[C@H]3CO4)nc3c2CCN(c2cccc4ccccc24)C3)CC1CC#N` (stereo partly drawn) [Example 154, 2-[4-[7-(1-naphthyl)-2-[3-[(1S,4S)-2-oxa-5-azabicyclo[2.2.1]heptan-5-yl]propoxy]-6,8-dihydro-5H-pyrido[3,4-d]pyrimidin-4-yl]-1-prop-2-enoyl-piperazin-2-yl] acetonitrile], with 6.00 to 10.00; and `C=CC(=O)N1CCN(c2nc(OC[C@@H]3C[C@@H](F)CN3C)nc3c2CCN(c2cc(O)cc4ccccc24)C3)CC1` [Example 357, 1-[4-[2-[[(2S,4R)-4-fluoro-1-methyl-pyrrolidin-2-yl]methoxy]-7-(3-hydroxy-1-naphthyl)-6,8-dihydro-5H-pyrido[3,4-d]pyrimidin-4-yl]piperazin-1-yl]prop-2-en-1-one], with 6.00 to 10.00.
For `C=CC(=O)N1CC2(C1)CN(c1nc(OCCCN(C)C)nc3c1CCN(c1cc(O)cc4ccccc14)C3)C2` [Example 20, 1-(6-(2-(3-(dimethylamino)propoxy)-7-(3-hydroxynaphthalen-1-yl)-5,6,7,8-tetrahydropyrido[3,4-d]pyrimidin-4-yl)-2,6-diazaspiro[3.3]heptan-2-yl)prop-2-en-1-one], the pIC50 was < 6.00.
Consider `C=CC(=O)N1CCN(c2nc(OC[C@@H]3CCN(C)C3)nc3c2CCN(c2c(C(F)(F)F)ccc4[nH]ncc24)C3)CC1CC#N` (stereo partly drawn) [Example 313, 2-[4-[2-[[(3R)-1-methylpyrrolidin-3-yl]methoxy]-7-[5-(trifluoromethyl)-1H-indazol-4-yl]-6,8-dihydro-5H-pyrido[3,4-d]pyrimidin-4-yl]-1-prop-2-enoyl-piperazin-2-yl]acetonitrile], for which the pIC50 is 6.00 to 10.00.
